Measured values reported in ChEMBL document CHEMBL4177650, “Synthesis and biological evolution of hydrazones derived from 4-(trifluoromethyl)benzohydrazide” (Bioorg Med Chem Lett, 2017).
Converted amounts (≈) assume the structure as drawn. The source made the active and inactive calls. No cut-off for these calls is given here.

Tests used:
Candida tropicalis [1] = experiment: Antifungal activity against Candida tropicalis 156 after 24 hrs by microdilution broth method; assay type: functional; settings: Candida tropicalis, 156, 24 h
[2] = system: Trichophyton mentagrophytes; experiment: Antifungal activity against Trichophyton mentagrophytes 445 after 120 hrs by microdilution broth method; assay type: functional; settings: Trichophyton mentagrophytes, 445, 120 h
[3] = system: Trichophyton mentagrophytes; experiment: Antifungal activity against Trichophyton mentagrophytes 445 after 72 hrs by microdilution broth method; assay type: functional; settings: Trichophyton mentagrophytes, 445, 72 h
Pichia kudriavzevii [4] = experiment: Antifungal activity against Candida krusei E28 after 48 hrs by microdilution broth method; assay type: functional; settings: E28, 48 h
Nakaseomyces glabratus [5] = experiment: Antifungal activity against Candida glabrata 20/I after 24 hrs by microdilution broth method; assay type: functional
Candida tropicalis [6] = experiment: Antifungal activity against Candida tropicalis 156 after 48 hrs by microdilution broth method; assay type: functional; settings: Candida tropicalis, 156, 48 h
Pichia kudriavzevii [7] = experiment: Antifungal activity against Candida krusei E28 after 24 hrs by microdilution broth method; assay type: functional; settings: E28, 24 h
Nakaseomyces glabratus [8] = experiment: Antifungal activity against Candida glabrata 20/I after 48 hrs by microdilution broth method; assay type: functional
[9] = system: Mycobacterium tuberculosis; experiment: Antimycobacterial activity against Mycobacterium tuberculosis H37Rv 331/88 after 21 days by micromethod; assay type: functional; settings: H37Rv 331/88, 504 h
Mycobacterium kansasii [10] = experiment: Antimycobacterial activity against Mycobacterium kansasii 6509/96 after 7 days by micromethod; assay type: functional; settings: 6509/96, 168 h
Mycobacterium kansasii [11] = experiment: Antimycobacterial activity against Mycobacterium kansasii 6509/80 after 21 days by micromethod; assay type: functional; settings: 6509/80, 504 h
Mycobacterium kansasii [12] = experiment: Antimycobacterial activity against Mycobacterium kansasii 6509/96 after 14 days by micromethod; assay type: functional; settings: 6509/96, 336 h
Klebsiella pneumoniae [13] = experiment: Antibacterial activity against gram-negative Klebsiella pneumoniae D 11750/08 after 24 to 48 hrs by microdilution broth method; assay type: functional, organism-based
Trichosporon asahii = experiment: Antifungal activity against Trichosporon asahii 1188 after 24 to 48 hrs by microdilution broth method; assay type: functional, organism-based
Mycobacterium avium [14] = experiment: Antimycobacterial activity against Mycobacterium avium 330/88 after 21 days by micromethod; assay type: functional; settings: 330/88, 504 h
Lichtheimia corymbifera = experiment: Antifungal activity against Absidia corymbifera 272 after 24 to 48 hrs by microdilution broth method; assay type: functional, organism-based
Aspergillus fumigatus = experiment: Antifungal activity against Aspergillus fumigatus 231 after 24 to 48 hrs by microdilution broth method; assay type: functional, organism-based
Mycobacterium avium [15] = experiment: Antimycobacterial activity against Mycobacterium avium 330/88 after 14 days by micromethod; assay type: functional; settings: 330/88, 336 h
Klebsiella pneumoniae [16] = experiment: Antibacterial activity against extended spectrum beta-lactamase-positive Klebsiella pneumoniae J 14368/08 after 24 to 48 hrs by microdilution broth method; assay type: functional, organism-based
Mycobacterium kansasii [17] = experiment: Antimycobacterial activity against Mycobacterium kansasii 6509/96 after 21 days by micromethod; assay type: functional; settings: 6509/96, 504 h
Mycobacterium kansasii [18] = experiment: Antimycobacterial activity against Mycobacterium kansasii 6509/80 after 14 days by micromethod; assay type: functional; settings: 6509/80, 336 h
Mycobacterium kansasii [19] = experiment: Antimycobacterial activity against Mycobacterium kansasii 6509/80 after 7 days by micromethod; assay type: functional; settings: 6509/80, 168 h
Candida albicans = experiment: Antifungal activity against Candida albicans ATCC 44859 after 24 to 48 hrs by microdilution broth method; assay type: functional, organism-based
Pseudomonas aeruginosa = experiment: Antibacterial activity against gram-negative Pseudomonas aeruginosa CCM 1961 after 48 hrs by microdilution broth method; assay type: functional, organism-based
[20] = system: Mycobacterium tuberculosis; experiment: Antimycobacterial activity against Mycobacterium tuberculosis H37Rv 331/88 after 14 days by micromethod; assay type: functional; settings: H37Rv 331/88, 336 h
Staphylococcus aureus [21] = experiment: Antibacterial activity against gram-positive Staphylococcus aureus CCM 4516/08 after 24 hrs by microdilution broth method; assay type: functional; settings: CCM 4516/08, 24 h
Escherichia coli [22] = experiment: Antibacterial activity against gram-negative Escherichia coli CCM 4517 after 24 hrs by microdilution broth method; assay type: functional; settings: CCM 4517, 24 h
Escherichia coli [23] = experiment: Antibacterial activity against gram-negative Escherichia coli CCM 4517 after 48 hrs by microdilution broth method; assay type: functional; settings: CCM 4517, 48 h
Enterococcus faecalis [24] = experiment: Antibacterial activity against gram-positive Enterococcus faecalis J 14365/08 after 48 hrs by microdilution broth method; assay type: functional; settings: J 14365/08, 48 h
Staphylococcus aureus [25] = experiment: Antibacterial activity against gram-positive methicillin-resistant Staphylococcus aureus H 5996/08 after 24 hrs by microdilution broth method; assay type: functional; settings: H 5996/08, 24 h
[26] = system: Staphylococcus epidermidis; experiment: Antibacterial activity against gram-positive Staphylococcus epidermidis H 6966/08 after 24 hrs by microdilution broth method; assay type: functional; settings: H 6966/08, 24 h
Staphylococcus aureus [27] = experiment: Antibacterial activity against gram-positive methicillin-resistant Staphylococcus aureus H 5996/08 after 48 hrs by microdilution broth method; assay type: functional; settings: H 5996/08, 48 h
Staphylococcus aureus [28] = experiment: Antibacterial activity against gram-positive Staphylococcus aureus CCM 4516/08 after 48 hrs by microdilution broth method; assay type: functional; settings: CCM 4516/08, 48 h
Enterococcus faecalis [29] = experiment: Antibacterial activity against gram-positive Enterococcus faecalis J 14365/08 after 24 hrs by microdilution broth method; assay type: functional; settings: J 14365/08, 24 h
[30] = system: Staphylococcus epidermidis; experiment: Antibacterial activity against gram-positive Staphylococcus epidermidis H 6966/08 after 48 hrs by microdilution broth method; assay type: functional; settings: H 6966/08, 48 h

Row | SMILES | MIC (Candida tropicalis [1]) | MIC [2] | MIC [3] | MIC [9] | MIC (Mycobacterium kansasii [10]) | MIC (Mycobacterium kansasii [11]) | MIC (Mycobacterium kansasii [12]) | Activity (Klebsiella pneumoniae [13]) | Activity (Trichosporon asahii) | MIC (Mycobacterium avium [14]) | Activity (Lichtheimia corymbifera) | Activity (Aspergillus fumigatus) | MIC (Mycobacterium avium [15]) | Activity (Klebsiella pneumoniae [16]) | MIC (Mycobacterium kansasii [17]) | MIC (Mycobacterium kansasii [18]) | MIC (Mycobacterium kansasii [19]) | Activity (Candida albicans) | Activity (Pseudomonas aeruginosa) | MIC [20] | further results
1 | OC(Cn1cncn1)(Cn1cncn1)c1ccc(F)cc1F [FLUCONAZOLE] | > 500 µM | 125 µM (≈ 38.3 µg/mL) | 7.81 µM (≈ 2.39 µg/mL) |  |  |  |  |  |  |  |  |  |  |  |  |  |  |  |  |  | MIC (Pichia kudriavzevii [4]): 250 µM (≈ 76.6 µg/mL); MIC (Nakaseomyces glabratus [5]): 31.2 µM (≈ 9.57 µg/mL); MIC (Candida tropicalis [6]): > 500 µM; MIC (Pichia kudriavzevii [7]): 125 µM (≈ 38.3 µg/mL); MIC (Nakaseomyces glabratus [8]): 500 µM (≈ 153 µg/mL)
2 | O=C(N/N=C/c1ccc([N+](=O)[O-])cc1)c1ccc(C(F)(F)F)cc1 |  |  |  | > 250 µM | 250 µM (≈ 84.3 µg/mL) | 62.5 µM (≈ 21.1 µg/mL) | > 250 µM | inactive | inactive | > 250 µM | inactive | inactive | > 250 µM | inactive | > 250 µM | 62.5 µM (≈ 21.1 µg/mL) | 32 µM (≈ 10.8 µg/mL) | inactive | inactive | 125 µM (≈ 42.2 µg/mL) | 
3 | O=C(NN=C1CCCCC1)c1ccc(C(F)(F)F)cc1 |  |  |  | 500 µM (≈ 142 µg/mL) | 500 µM (≈ 142 µg/mL) | > 1000 µM | 1000 µM (≈ 284 µg/mL) |  |  | > 125 µM |  |  | > 125 µM |  | 1000 µM (≈ 284 µg/mL) | > 1000 µM | 500 µM (≈ 142 µg/mL) |  |  | 250 µM (≈ 71.1 µg/mL) | 
4 | NNC(=O)c1ccc(C(F)(F)F)cc1 | > 500 µM | > 500 µM | > 500 µM | 500 µM (≈ 102 µg/mL) | > 250 µM | > 250 µM | > 250 µM |  |  | > 500 µM |  |  | > 500 µM |  | > 250 µM | > 250 µM | > 250 µM |  |  | 250 µM (≈ 51 µg/mL) | MIC (Staphylococcus aureus [21]): > 500 µM; MIC (Escherichia coli [22]): > 500 µM; MIC (Escherichia coli [23]): > 500 µM; MIC (Enterococcus faecalis [24]): > 500 µM; MIC (Pichia kudriavzevii [4]): > 500 µM; MIC (Staphylococcus aureus [25]): > 500 µM; MIC (Nakaseomyces glabratus [5]): > 500 µM; MIC (Candida tropicalis [6]): > 500 µM; MIC [26]: > 500 µM; MIC (Pichia kudriavzevii [7]): > 500 µM; MIC (Staphylococcus aureus [27]): > 500 µM; MIC (Nakaseomyces glabratus [8]): > 500 µM; MIC (Staphylococcus aureus [28]): > 500 µM; MIC (Enterococcus faecalis [29]): > 500 µM; MIC [30]: > 500 µM
5 | O=C(N/N=C/c1cccc(O)c1)c1ccc(C(F)(F)F)cc1 |  |  |  | 250 µM (≈ 77.1 µg/mL) | 250 µM (≈ 77.1 µg/mL) | 250 µM (≈ 77.1 µg/mL) | 500 µM (≈ 154 µg/mL) | inactive | inactive | 250 µM (≈ 77.1 µg/mL) | inactive | inactive | 250 µM (≈ 77.1 µg/mL) | inactive | 500 µM (≈ 154 µg/mL) | 125 µM (≈ 38.5 µg/mL) | 62.5 µM (≈ 19.3 µg/mL) | inactive | inactive | 250 µM (≈ 77.1 µg/mL) | 
6 | O=C(NN=C1CCCC1)c1ccc(C(F)(F)F)cc1 |  |  |  | 500 µM (≈ 135 µg/mL) | 500 µM (≈ 135 µg/mL) | > 1000 µM | 1000 µM (≈ 270 µg/mL) |  |  | > 125 µM |  |  | > 125 µM |  | 1000 µM (≈ 270 µg/mL) | > 1000 µM | 500 µM (≈ 135 µg/mL) |  |  | 500 µM (≈ 135 µg/mL) | 
7 | CC(C)=NNC(=O)c1ccc(C(F)(F)F)cc1 | > 500 µM | > 500 µM | > 500 µM | > 125 µM | > 125 µM | > 125 µM | > 125 µM | inactive | inactive | > 125 µM | inactive | inactive | > 125 µM | inactive | > 125 µM | > 125 µM | 125 µM (≈ 30.5 µg/mL) | inactive | inactive | > 125 µM | MIC (Staphylococcus aureus [21]): > 500 µM; MIC (Escherichia coli [22]): > 500 µM; MIC (Escherichia coli [23]): > 500 µM; MIC (Enterococcus faecalis [24]): 500 µM (≈ 122 µg/mL); MIC (Pichia kudriavzevii [4]): > 500 µM; MIC (Staphylococcus aureus [25]): > 500 µM; MIC (Nakaseomyces glabratus [5]): > 500 µM; MIC (Candida tropicalis [6]): > 500 µM; MIC [26]: 500 µM (≈ 122 µg/mL); MIC (Pichia kudriavzevii [7]): > 500 µM; MIC (Staphylococcus aureus [27]): > 500 µM; MIC (Nakaseomyces glabratus [8]): > 500 µM; MIC (Staphylococcus aureus [28]): > 500 µM; MIC (Enterococcus faecalis [29]): 250 µM (≈ 61.1 µg/mL); MIC [30]: > 500 µM
8 | NNC(=O)c1ccncc1 [ISONIAZID] |  |  |  | 1 µM (≈ 0.137 µg/mL) | 8 µM (≈ 1.1 µg/mL) | > 250 µM | 8 µM (≈ 1.1 µg/mL) |  |  | > 250 µM |  |  | > 250 µM |  | 8 µM (≈ 1.1 µg/mL) | > 250 µM | > 250 µM |  |  | 0.5 µM (≈ 0.0686 µg/mL) | 
9 | O=C(N/N=C/c1cccc(Cl)c1)c1ccc(C(F)(F)F)cc1 |  |  |  | > 125 µM | > 125 µM | > 125 µM | > 125 µM | inactive | inactive | > 125 µM | inactive | inactive | > 125 µM | inactive | > 125 µM | > 125 µM | 125 µM (≈ 40.8 µg/mL) | inactive | inactive | > 125 µM | 
